Assay results published in paper PMC3515450, “Mechanistic and Structural Understanding of Uncompetitive Inhibitors of Caspase-6” (PLoS ONE, 2012).

Key:
caspase-7 = biological target: T1, caspase-7 (Homo sapiens, UniProt P55210); assay: Caspase-7 enzymatic assay with divalent R110 substrate; type: biochemical; conditions: caspase-7, (DEVD)2R110 substrate
T1 construct: as the catalytic domain consisting of large p20 and small p10 subunits without prodomain; made in house
T1 sequence (P55210 24-198 limits assumed): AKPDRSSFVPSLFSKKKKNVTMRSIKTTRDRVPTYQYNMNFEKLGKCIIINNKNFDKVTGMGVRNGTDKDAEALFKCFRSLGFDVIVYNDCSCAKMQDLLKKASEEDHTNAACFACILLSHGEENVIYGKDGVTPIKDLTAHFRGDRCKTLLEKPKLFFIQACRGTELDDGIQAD
T1 sequence (P55210 207-303 limits assumed): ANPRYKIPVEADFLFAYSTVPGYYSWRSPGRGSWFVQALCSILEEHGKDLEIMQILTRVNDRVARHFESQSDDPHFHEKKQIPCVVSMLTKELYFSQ
Experimental: The in vitro enzymatic caspase assays utilize synthetic tetrapeptide substrates labeled with the fluorophores Rhodamine110 (R110) or 7-amino-4-methylcoumarin (AMC) at the P1 aspartic acid (Asp) residue. All assays were performed in 384-well plates in 12 µL reaction volume consisting of enzyme, substrate and indicated concentration of inhibitor or DMSO in assay buffer (50 mM HEPES [pH 7.0], 25 mM MgSO4, 0.5 mM EGTA, 5 mM Glutathione (GSH), 0.01% Triton X-100 containing 0.1% Bovine Gamma Globulin (BGG)). All inhibitors were serially diluted in 100% DMSO prior to dilution in assay buffer and transfer to assay plate. DMSO was diluted into assay buffer similarly for blank wells (no enzyme or compound) and final DMSO concentration was 1%. […] Unless otherwise indicated, substrate concentration was within 3-fold of the determined Kmapparent (5 µM (Ac-VEID)2R110 [Kmapp = 8 µM]; 5 µM (Ac-DEVD)2R110 [Kmapp = 8 µM]; 25 µM (Ac-IETD)2R110 [Kmapp = 70 µM]; 25 µM (Ac-WEHD)2R110 [Kmapp = 70 µM]; 10µM Ac-VEID-AMC [Kmapp = 16µM]; 5 µM Ac-VEID-R110 [Kmapp = 8 µM]). […] For all caspase enzymatic assays, the reaction plate was incubated at room temperature for 40 minutes and then read on Envision (Perkin Elmer) fluorescent plate reader at excitation/emission wavelengths of 485/535 nm (R110) or 350/450 nm (AMC). […]

apo-caspase-6 = biological target: T2, apo-caspase-6 (Homo sapiens, UniProt P55212); assay: SPR binding to apo-caspase-6; conditions: Rmax locked to control compound
T2 construct: Residues 24-179 and 194-293 from caspase-6 cDNA (Origene) were cloned into pET-24b and pET-23b vectors; 6x histidine tag; made in house; host or cells: E. coli (as above), BirA co-expressed
T2 sequence (P55212 24-179): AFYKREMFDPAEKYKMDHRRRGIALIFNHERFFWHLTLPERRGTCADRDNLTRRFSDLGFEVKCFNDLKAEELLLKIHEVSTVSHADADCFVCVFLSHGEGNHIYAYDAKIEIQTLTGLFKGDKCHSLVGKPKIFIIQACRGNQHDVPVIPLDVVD
T2 sequence (P55212 194-293): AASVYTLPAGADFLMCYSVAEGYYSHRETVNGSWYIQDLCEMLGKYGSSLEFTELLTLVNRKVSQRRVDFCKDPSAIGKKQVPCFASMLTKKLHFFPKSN
Experimental: For SPR experiments, caspase-6 was cloned to include a C-terminal avi-tag (Avidity) and expressed and purified as above, except that biotin ligase (BirA) was co-expressed during fermentation. […] Avi-tagged zymogen C163A-caspase-6 was processed to mature C163A-caspase-6 by the addition of active caspase-3 and caspase-6. Chip preparation for neutravidin-based capture was performed as previously described using either a Biacore T100 or Biacore 3000 instrument (GE Healthcare). Running buffer was 50 mM HEPES pH 7.2, 100 mM MgSO4, 30 mM NaCl, 1 mM TCEP, 0.01% Triton X-100, 1% PEG-3350, 2.5% DMSO, and the instrument was set for 20 degrees C. After capture one flow cell of apo-caspase-6 was exposed to a continuous flow of 20 µM VEID-FMK. A rise in signal could be detected for the binding/reacting of the VEID-FMK and exposure was continued until no additional rise in response was observed (∼45 minutes) indicating full saturation of all binding sites. There was no observed decrease in signal upon washing, indicating the reaction was irreversible. […] Fluorescent substrates were too limiting in solubility and quantity to be added to the running buffer, so substrates were mixed at a concentration equal to their Kmapp with 3 and injected together over the indicated surfaces. […]

IC50 (caspase-7): > 100 µM
Kd (apo-caspase-6): 192 µM
Structure (SMILES): COc1ccc(-c2cc(C(=O)N[C@@H](CO)Cc3cccc(C#N)c3)co2)cc1OC [Compound 3]
